Data reported in ChEMBL document CHEMBL4507267 (2021).

How the values were obtained:
[1] = test system: Tyrosine-protein kinase ABL1 (Homo sapiens), P00519 [H396P]; details: Compound concentration 1000.0 nM
[2] = test system: Tyrosine-protein kinase ABL1 (Homo sapiens), P00519 [M351T]; details: Compound concentration 1000.0 nM
[3] = target: Tyrosine-protein kinase ABL1 (Homo sapiens) (UniProt P00519); details: Compound concentration 1000.0 nM
[4] = target: RAC-alpha serine/threonine-protein kinase (Homo sapiens) (UniProt P31749); details: Compound concentration 1000.0 nM
[5] = test system: ALK tyrosine kinase receptor (Homo sapiens), Q9UM73 [C1156Y]; details: Compound concentration 1000.0 nM
[6] = target: Tyrosine-protein kinase receptor UFO (Homo sapiens) (UniProt P30530); details: Compound concentration 1000.0 nM
[7] = target: Serine/threonine-protein kinase B-raf (Homo sapiens) (UniProt P15056); details: Compound concentration 1000.0 nM
[8] = test system: Serine/threonine-protein kinase B-raf (Homo sapiens), P15056 [V600E]; details: Compound concentration 1000.0 nM
[9] = target: Calcium/calmodulin-dependent protein kinase type II subunit beta (Homo sapiens) (UniProt Q13554); details: Compound concentration 1000.0 nM
[10] = target: Calcium/calmodulin-dependent protein kinase type IV (Homo sapiens) (UniProt Q16566); details: Compound concentration 1000.0 nM
[11] = target: Peripheral plasma membrane protein CASK (Homo sapiens) (UniProt O14936); details: Compound concentration 1000.0 nM
[12] = target: Epithelial discoidin domain-containing receptor 1 (Homo sapiens) (UniProt Q08345); details: Compound concentration 1000.0 nM
[13] = target: Myotonin-protein kinase (Homo sapiens) (UniProt Q09013); details: Compound concentration 1000.0 nM
[14] = target: Dual specificity tyrosine-phosphorylation-regulated kinase 1A (Homo sapiens) (UniProt Q13627); details: Compound concentration 1000.0 nM
[15] = test system: Epidermal growth factor receptor (Homo sapiens), P00533 [G719S]; details: Compound concentration 1000.0 nM
[16] = test system: Epidermal growth factor receptor (Homo sapiens), P00533 [L858R]; details: Compound concentration 1000.0 nM
[17] = target: Ephrin type-A receptor 1 (Homo sapiens) (UniProt P21709); details: Compound concentration 1000.0 nM
[18] = target: Ephrin type-A receptor 5 (Homo sapiens) (UniProt P54756); details: Compound concentration 1000.0 nM
[19] = target: Receptor tyrosine-protein kinase erbB-2 (Homo sapiens) (UniProt P04626); details: Compound concentration 1000.0 nM
[20] = test system: Fibroblast growth factor receptor 3 (Homo sapiens), P22607 [G697C]; details: Compound concentration 1000.0 nM
[21] = target: Mitogen-activated protein kinase 9 (Homo sapiens) (UniProt P45984); details: Compound concentration 1000.0 nM
[22] = test system: Mast/stem cell growth factor receptor Kit (Homo sapiens), P10721 [D816V]; details: Compound concentration 1000.0 nM
[23] = target: Serine/threonine-protein kinase MAK (Homo sapiens) (UniProt P20794); details: Compound concentration 1000.0 nM
[24] = target: Serine/threonine-protein kinase MARK1 (Homo sapiens) (UniProt Q9P0L2); details: Compound concentration 1000.0 nM
[25] = target: MAP/microtubule affinity-regulating kinase 4 (Homo sapiens) (UniProt Q96L34); details: Compound concentration 1000.0 nM
[26] = target: Dual specificity mitogen-activated protein kinase kinase 4 (Homo sapiens) (UniProt P45985); details: Compound concentration 1000.0 nM
[27] = target: Myosin light chain kinase (Homo sapiens) (UniProt Q32MK0); details: Compound concentration 1000.0 nM
[28] = target: Serine/threonine-protein kinase 24 (Homo sapiens) (UniProt Q9Y6E0); details: Compound concentration 1000.0 nM
[29] = target: Calcium-dependent protein kinase 1 (Plasmodium falciparum) (UniProt P62344); details: Compound concentration 1000.0 nM
[30] = test system: Phosphatidylinositol 4,5-bisphosphate 3-kinase catalytic subunit alpha isoform (Homo sapiens), P42336 [M1043I]; details: Compound concentration 1000.0 nM
[31] = target: Phosphatidylinositol 4,5-bisphosphate 3-kinase catalytic subunit beta isoform (Homo sapiens) (UniProt P42338); details: Compound concentration 1000.0 nM
[32] = target: Serine/threonine-protein kinase pim-1 (Homo sapiens) (UniProt P11309); details: Compound concentration 1000.0 nM
[33] = target: Serine/threonine-protein kinase pim-3 (Homo sapiens) (UniProt Q86V86); details: Compound concentration 1000.0 nM
[34] = target: cAMP-dependent protein kinase catalytic subunit alpha (Homo sapiens) (UniProt P17612); details: Compound concentration 1000.0 nM
[35] = target: Protein kinase C delta type (Homo sapiens) (UniProt Q05655); details: Compound concentration 1000.0 nM
[36] = target: Receptor-interacting serine/threonine-protein kinase 4 (Homo sapiens) (UniProt P57078); details: Compound concentration 1000.0 nM
[37] = target: NUAK family SNF1-like kinase 2 (Homo sapiens) (UniProt Q9H093); details: Compound concentration 1000.0 nM
[38] = target: Serine/threonine-protein kinase TAO1 (Homo sapiens) (UniProt Q7L7X3); details: Compound concentration 1000.0 nM
[39] = target: Testis-specific serine/threonine-protein kinase 1 (Homo sapiens) (UniProt Q9BXA7); details: Compound concentration 1000.0 nM
[40] = target: Serine/threonine-protein kinase WNK2 (Homo sapiens) (UniProt Q9Y3S1); details: Compound concentration 1000.0 nM
[41] = target: Serine/threonine-protein kinase 32B (Homo sapiens) (UniProt Q9NY57); details: Compound concentration 1000.0 nM
[42] = target: Mitogen-activated protein kinase kinase kinase 20 (Homo sapiens) (UniProt Q9NYL2); details: Compound concentration 1000.0 nM
[43] = target: 5-hydroxytryptamine receptor 1D (Homo sapiens) (UniProt P28221); details: Compound concentration 10.0 uM
[44] = target: 5-hydroxytryptamine receptor 3A (Homo sapiens) (UniProt P46098); details: Compound concentration 10.0 uM
[45] = target: Mu-type opioid receptor (Homo sapiens) (UniProt P35372); details: Compound concentration 10.0 uM

ALK tyrosine kinase receptor (Homo sapiens), Q9UM73 [C1156Y], sequence (Q9UM73 whole entry C1156Y, looked up): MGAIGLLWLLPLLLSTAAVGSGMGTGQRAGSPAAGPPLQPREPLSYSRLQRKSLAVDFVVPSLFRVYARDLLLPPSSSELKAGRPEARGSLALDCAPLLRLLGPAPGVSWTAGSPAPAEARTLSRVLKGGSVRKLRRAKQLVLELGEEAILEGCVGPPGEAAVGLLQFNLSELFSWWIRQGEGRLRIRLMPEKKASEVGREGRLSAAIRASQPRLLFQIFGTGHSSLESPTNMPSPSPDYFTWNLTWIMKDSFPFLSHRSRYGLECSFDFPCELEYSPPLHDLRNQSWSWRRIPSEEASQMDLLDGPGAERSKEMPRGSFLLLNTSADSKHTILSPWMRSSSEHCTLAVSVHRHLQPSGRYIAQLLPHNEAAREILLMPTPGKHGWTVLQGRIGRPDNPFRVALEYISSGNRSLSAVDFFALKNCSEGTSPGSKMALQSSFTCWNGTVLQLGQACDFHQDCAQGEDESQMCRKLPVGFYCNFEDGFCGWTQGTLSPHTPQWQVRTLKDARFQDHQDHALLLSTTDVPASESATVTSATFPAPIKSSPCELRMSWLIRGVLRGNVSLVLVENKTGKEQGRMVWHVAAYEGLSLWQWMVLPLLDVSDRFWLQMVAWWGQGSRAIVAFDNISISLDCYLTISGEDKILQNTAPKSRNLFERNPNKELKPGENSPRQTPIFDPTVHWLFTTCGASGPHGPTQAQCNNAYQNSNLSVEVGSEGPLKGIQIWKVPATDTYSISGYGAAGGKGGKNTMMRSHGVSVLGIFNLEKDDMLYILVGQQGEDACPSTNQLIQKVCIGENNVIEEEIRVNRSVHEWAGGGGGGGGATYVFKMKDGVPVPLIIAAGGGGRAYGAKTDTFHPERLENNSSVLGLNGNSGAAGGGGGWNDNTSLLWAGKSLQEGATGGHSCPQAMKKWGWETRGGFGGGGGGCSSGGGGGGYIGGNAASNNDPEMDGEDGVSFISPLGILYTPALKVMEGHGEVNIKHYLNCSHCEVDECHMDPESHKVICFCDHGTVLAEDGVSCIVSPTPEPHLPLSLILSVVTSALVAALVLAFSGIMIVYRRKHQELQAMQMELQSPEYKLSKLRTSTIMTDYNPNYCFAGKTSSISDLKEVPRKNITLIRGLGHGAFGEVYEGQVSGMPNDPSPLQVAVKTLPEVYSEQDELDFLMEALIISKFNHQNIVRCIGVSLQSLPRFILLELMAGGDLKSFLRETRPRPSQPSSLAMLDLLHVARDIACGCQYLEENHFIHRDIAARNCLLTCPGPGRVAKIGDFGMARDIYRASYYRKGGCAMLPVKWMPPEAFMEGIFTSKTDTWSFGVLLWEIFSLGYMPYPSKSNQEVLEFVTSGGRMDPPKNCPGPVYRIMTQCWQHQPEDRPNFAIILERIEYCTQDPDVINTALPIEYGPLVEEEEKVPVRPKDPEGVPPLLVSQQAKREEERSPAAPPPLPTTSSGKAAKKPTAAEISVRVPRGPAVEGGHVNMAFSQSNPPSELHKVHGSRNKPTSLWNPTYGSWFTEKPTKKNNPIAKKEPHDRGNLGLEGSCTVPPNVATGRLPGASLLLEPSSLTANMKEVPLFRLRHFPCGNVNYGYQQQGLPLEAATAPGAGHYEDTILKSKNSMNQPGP
RAC-alpha serine/threonine-protein kinase (Homo sapiens), sequence (P31749 whole entry): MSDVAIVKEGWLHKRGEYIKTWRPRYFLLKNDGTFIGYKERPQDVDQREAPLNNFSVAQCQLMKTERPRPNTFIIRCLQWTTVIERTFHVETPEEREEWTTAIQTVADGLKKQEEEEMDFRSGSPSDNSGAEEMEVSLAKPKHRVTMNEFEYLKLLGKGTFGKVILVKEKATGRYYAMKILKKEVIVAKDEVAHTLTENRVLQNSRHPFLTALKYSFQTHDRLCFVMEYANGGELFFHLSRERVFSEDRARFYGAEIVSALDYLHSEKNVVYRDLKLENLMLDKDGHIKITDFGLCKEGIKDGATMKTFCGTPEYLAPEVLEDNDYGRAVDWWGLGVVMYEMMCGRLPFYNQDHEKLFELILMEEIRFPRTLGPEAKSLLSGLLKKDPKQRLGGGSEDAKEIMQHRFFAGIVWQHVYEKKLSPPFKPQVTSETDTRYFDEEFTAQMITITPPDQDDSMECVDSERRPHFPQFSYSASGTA
Fibroblast growth factor receptor 3 (Homo sapiens), P22607 [G697C], sequence (P22607 whole entry G697C): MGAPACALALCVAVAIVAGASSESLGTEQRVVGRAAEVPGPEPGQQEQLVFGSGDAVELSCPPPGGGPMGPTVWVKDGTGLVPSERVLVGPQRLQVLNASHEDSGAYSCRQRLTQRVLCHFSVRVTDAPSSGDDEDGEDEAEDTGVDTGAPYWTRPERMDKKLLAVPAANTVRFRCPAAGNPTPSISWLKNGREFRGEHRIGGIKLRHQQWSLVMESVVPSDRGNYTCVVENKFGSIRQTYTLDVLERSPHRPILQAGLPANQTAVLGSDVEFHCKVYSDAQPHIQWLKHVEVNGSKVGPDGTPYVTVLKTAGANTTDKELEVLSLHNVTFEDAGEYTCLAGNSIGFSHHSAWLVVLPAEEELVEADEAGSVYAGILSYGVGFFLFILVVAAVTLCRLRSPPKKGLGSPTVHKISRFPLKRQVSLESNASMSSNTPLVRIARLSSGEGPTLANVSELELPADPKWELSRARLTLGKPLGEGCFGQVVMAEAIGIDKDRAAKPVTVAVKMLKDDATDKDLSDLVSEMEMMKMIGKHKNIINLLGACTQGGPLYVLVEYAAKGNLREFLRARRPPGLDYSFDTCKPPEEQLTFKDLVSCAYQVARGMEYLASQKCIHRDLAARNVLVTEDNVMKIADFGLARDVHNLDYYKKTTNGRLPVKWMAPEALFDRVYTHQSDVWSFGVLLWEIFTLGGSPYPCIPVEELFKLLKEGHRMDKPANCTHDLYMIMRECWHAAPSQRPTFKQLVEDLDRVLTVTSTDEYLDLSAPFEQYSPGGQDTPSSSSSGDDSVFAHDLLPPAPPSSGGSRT
Testis-specific serine/threonine-protein kinase 1 (Homo sapiens), sequence (Q9BXA7 whole entry): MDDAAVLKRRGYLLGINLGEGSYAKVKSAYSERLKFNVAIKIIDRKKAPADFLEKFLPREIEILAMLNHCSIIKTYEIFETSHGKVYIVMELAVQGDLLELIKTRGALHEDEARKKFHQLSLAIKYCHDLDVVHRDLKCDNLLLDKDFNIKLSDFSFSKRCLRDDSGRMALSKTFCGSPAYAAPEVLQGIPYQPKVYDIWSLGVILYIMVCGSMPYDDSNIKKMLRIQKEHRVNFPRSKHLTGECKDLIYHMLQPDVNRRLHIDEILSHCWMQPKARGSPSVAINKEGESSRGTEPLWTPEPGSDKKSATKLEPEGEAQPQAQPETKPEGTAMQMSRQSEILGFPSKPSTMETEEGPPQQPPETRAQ
Ephrin type-A receptor 1 (Homo sapiens), sequence (P21709 whole entry): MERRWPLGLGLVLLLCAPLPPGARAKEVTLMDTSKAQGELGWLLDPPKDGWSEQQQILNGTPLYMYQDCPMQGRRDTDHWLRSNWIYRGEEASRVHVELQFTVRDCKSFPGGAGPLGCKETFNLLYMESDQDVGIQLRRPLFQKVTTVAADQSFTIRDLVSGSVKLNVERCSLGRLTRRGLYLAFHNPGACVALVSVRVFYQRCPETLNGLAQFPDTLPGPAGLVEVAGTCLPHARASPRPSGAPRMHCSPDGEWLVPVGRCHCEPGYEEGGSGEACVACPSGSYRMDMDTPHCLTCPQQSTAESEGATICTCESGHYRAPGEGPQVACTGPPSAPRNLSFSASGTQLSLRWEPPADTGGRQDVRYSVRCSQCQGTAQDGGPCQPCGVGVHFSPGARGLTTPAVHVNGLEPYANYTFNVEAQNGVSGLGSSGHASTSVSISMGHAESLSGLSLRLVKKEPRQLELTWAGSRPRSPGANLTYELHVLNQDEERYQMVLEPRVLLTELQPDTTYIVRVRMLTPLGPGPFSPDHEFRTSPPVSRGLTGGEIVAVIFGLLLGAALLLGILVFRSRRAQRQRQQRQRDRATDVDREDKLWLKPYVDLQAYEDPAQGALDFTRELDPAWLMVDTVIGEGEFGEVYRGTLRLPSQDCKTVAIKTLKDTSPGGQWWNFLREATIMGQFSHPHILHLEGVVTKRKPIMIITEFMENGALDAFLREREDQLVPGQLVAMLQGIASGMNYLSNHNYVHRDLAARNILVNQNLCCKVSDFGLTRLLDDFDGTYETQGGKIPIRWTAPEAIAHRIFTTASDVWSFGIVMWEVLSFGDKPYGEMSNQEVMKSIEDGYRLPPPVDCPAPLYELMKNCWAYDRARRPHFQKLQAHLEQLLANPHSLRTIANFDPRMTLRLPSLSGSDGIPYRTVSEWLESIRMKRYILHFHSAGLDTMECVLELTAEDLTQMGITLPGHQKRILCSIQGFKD
Calcium/calmodulin-dependent protein kinase type IV (Homo sapiens), sequence (Q16566 whole entry): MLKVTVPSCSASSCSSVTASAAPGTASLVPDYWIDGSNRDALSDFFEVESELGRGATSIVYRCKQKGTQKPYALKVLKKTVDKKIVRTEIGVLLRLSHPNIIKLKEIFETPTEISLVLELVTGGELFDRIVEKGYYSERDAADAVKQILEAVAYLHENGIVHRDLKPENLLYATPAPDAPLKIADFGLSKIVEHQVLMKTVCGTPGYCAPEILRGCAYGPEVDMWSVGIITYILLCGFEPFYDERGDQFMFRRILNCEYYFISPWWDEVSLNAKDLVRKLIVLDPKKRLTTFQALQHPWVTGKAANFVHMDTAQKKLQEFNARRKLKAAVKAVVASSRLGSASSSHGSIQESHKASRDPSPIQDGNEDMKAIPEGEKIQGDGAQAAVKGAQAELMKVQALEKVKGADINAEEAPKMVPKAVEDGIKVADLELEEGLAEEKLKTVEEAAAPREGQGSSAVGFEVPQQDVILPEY

Cc1c(NC(=O)c2cc(C(N)=O)nc3cc(F)ccc23)c(C(F)(F)F)nn1Cc1ccc(C(C)(C)C)cc1 [BAY-588]
residual activity [1]: 100%
residual activity [2]: 100%
residual activity [3]: 100%
residual activity [4]: 93%
residual activity [5]: 100%
residual activity [6]: 100%
residual activity [7]: 81%
residual activity [8]: 98%
residual activity [9]: 98%
residual activity [10]: 90%
residual activity [11]: 100%
residual activity [12]: 95%
residual activity [13]: 100%
residual activity [14]: 100%
residual activity [15]: 78%
residual activity [16]: 100%
residual activity [17]: 96%
residual activity [18]: 74%
residual activity [19]: 92%
residual activity [20]: 97%
residual activity [21]: 100%
residual activity [22]: 82%
residual activity [23]: 85%
residual activity [24]: 100%
residual activity [25]: 97%
residual activity [26]: 100%
residual activity [27]: 100%
residual activity [28]: 100%
residual activity [29]: 100%
residual activity [30]: 80%
residual activity [31]: 100%
residual activity [32]: 100%
residual activity [33]: 100%
residual activity [34]: 87%
residual activity [35]: 100%
residual activity [36]: 100%
residual activity [37]: 100%
residual activity [38]: 100%
residual activity [39]: 100%
residual activity [40]: 100%
residual activity [41]: 100%
residual activity [42]: 100%
inhibition [43]: -4.9%
inhibition [44]: 7.59%
inhibition [45]: 4.84%

Cc1c(NC(=O)c2cc(C(N)=O)nc3cc(F)ccc23)c(C(F)(F)F)nn1Cc1ccc(C#N)cc1 [BAY-876]
residual activity [1]: 81%
residual activity [2]: 87%
residual activity [3]: 78%
residual activity [4]: 91%
residual activity [5]: 98%
residual activity [6]: 100%
residual activity [7]: 91%
residual activity [8]: 90%
residual activity [9]: 90%
residual activity [10]: 76%
residual activity [11]: 71%
residual activity [12]: 1.5%
residual activity [13]: 92%
residual activity [14]: 84%
residual activity [15]: 86%
residual activity [16]: 97%
residual activity [17]: 74%
residual activity [18]: 100%
residual activity [19]: 100%
residual activity [20]: 89%
residual activity [21]: 77%
residual activity [22]: 88%
residual activity [23]: 79%
residual activity [24]: 100%
residual activity [25]: 100%
residual activity [26]: 86%
residual activity [27]: 79%
residual activity [28]: 78%
residual activity [29]: 92%
residual activity [30]: 91%
residual activity [31]: 83%
residual activity [32]: 86%
residual activity [33]: 100%
residual activity [34]: 78%
residual activity [35]: 95%
residual activity [36]: 92%
residual activity [37]: 83%
residual activity [38]: 93%
residual activity [39]: 95%
residual activity [40]: 87%
residual activity [41]: 100%
residual activity [42]: 100%
inhibition [43]: 6.11%
inhibition [44]: -7.03%
inhibition [45]: 6.68%
